Results from the supplement of paper PMC10307832.

Legend:
Assay in all cases: relative viability (nuclei count vs DMSO), 5 days (fraction); higher = more cells survive
LK-2 = test system: LK-2
How it was run: (§1)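 Cells from lung cancer lines were seeded into 1536-well plates and, one day later, dosed by pin tool. Treatments were either a single drug or a fixed dose of an anchor drug with five library-drug doses (not always all listed) in √10 steps. After 5 days, nuclei were stained in a one-step fixation (final 0.05% Triton X-100, 1% formaldehyde, 1 ug/ml Hoechst) and counted on 4× images, and relative viability is the treated-to-vehicle nuclei ratio, as the median of duplicate plates.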

NCI-H2347 = test system: NCI-H2347
How it was run: as §1

UMC-11 = test system: UMC-11
How it was run: as §1

ABC-1 = test system: ABC-1
How it was run: as §1

NCI-H441 = test system: NCI-H441
How it was run: as §1

NCI-H838 = test system: NCI-H838
How it was run: as §1

LC-2-ad = test system: LC-2-ad
How it was run: as §1

SW 1573 = test system: SW 1573
How it was run: as §1

NCI-H2023 = test system: NCI-H2023
How it was run: as §1

HCC-15 = test system: HCC-15
How it was run: as §1

NCI-H1793 = test system: NCI-H1793
How it was run: as §1

NCI-H1944 = test system: NCI-H1944
How it was run: as §1

NCI-H647 = test system: NCI-H647
How it was run: as §1

NCI-H2342 = test system: NCI-H2342
How it was run: as §1

NCI-H1915 = test system: NCI-H1915
How it was run: as §1

NCI-H322M = test system: NCI-H322M
How it was run: as §1

RERF-LC-KJ = test system: RERF-LC-KJ
How it was run: as §1

NCI-H2009 = test system: NCI-H2009
How it was run: as §1

EPLC-272H = test system: EPLC-272H
How it was run: as §1

NCI-H1734 = test system: NCI-H1734
How it was run: as §1

NCI-H358 = test system: NCI-H358
How it was run: as §1

NCI-H522 = test system: NCI-H522
How it was run: as §1

Cc1cn(-c2cc(NC(=O)c3ccc(C)c(Nc4nccc(-c5cccnc5)n4)c3)cc(C(F)(F)F)c2)cn1 [Nilotinib] + N=C(N)NC(=N)NCCc1ccccc1 [Phenformin] (partner 250 µM)
relative viability (LK-2; first compound 0.001 µM): 0.441
relative viability (LK-2; first compound 0.003162 µM): 0.367
relative viability (LK-2; first compound 0.01 µM): 0.337
relative viability (LK-2; first compound 0.03162 µM): 0.22
relative viability (LK-2; first compound 0.1 µM): 0.314
relative viability (NCI-H2347; first compound 0.001 µM): 0.386
relative viability (NCI-H2347; first compound 0.003162 µM): 0.308
relative viability (NCI-H2347; first compound 0.01 µM): 0.551
relative viability (NCI-H2347; first compound 0.03162 µM): 0.277
relative viability (NCI-H2347; first compound 0.1 µM): 0.327
relative viability (UMC-11; first compound 0.001 µM): 0.312
relative viability (UMC-11; first compound 0.003162 µM): 0.344
relative viability (UMC-11; first compound 0.01 µM): 0.324
relative viability (UMC-11; first compound 0.1 µM): 0.217
relative viability (ABC-1; first compound 0.001 µM): 0.219
relative viability (ABC-1; first compound 0.003162 µM): 0.243
relative viability (ABC-1; first compound 0.01 µM): 0.259
relative viability (ABC-1; first compound 0.03162 µM): 0.249
relative viability (ABC-1; first compound 0.1 µM): 0.264
relative viability (NCI-H441; first compound 0.001 µM): 0.798
relative viability (NCI-H441; first compound 0.003162 µM): 0.89
relative viability (NCI-H441; first compound 0.01 µM): 0.896
relative viability (NCI-H441; first compound 0.03162 µM): 0.648
relative viability (NCI-H441; first compound 0.1 µM): 0.881
relative viability (NCI-H838; first compound 0.001 µM): 0.599
relative viability (NCI-H838; first compound 0.003162 µM): 0.613
relative viability (NCI-H838; first compound 0.01 µM): 0.695
relative viability (NCI-H838; first compound 0.03162 µM): 0.492
relative viability (NCI-H838; first compound 0.1 µM): 0.51
relative viability (LC-2-ad; first compound 0.001 µM): 0.647
relative viability (LC-2-ad; first compound 0.003162 µM): 0.659
relative viability (LC-2-ad; first compound 0.01 µM): 0.557
relative viability (LC-2-ad; first compound 0.03162 µM): 0.609
relative viability (LC-2-ad; first compound 0.1 µM): 0.562
relative viability (SW 1573; first compound 0.001 µM): 0.405
relative viability (SW 1573; first compound 0.003162 µM): 0.445
relative viability (SW 1573; first compound 0.01 µM): 0.412
relative viability (SW 1573; first compound 0.03162 µM): 0.179
relative viability (SW 1573; first compound 0.1 µM): 0.289
relative viability (NCI-H2023; first compound 0.001 µM): 0.461
relative viability (NCI-H2023; first compound 0.003162 µM): 0.455
relative viability (NCI-H2023; first compound 0.01 µM): 0.571
relative viability (NCI-H2023; first compound 0.03162 µM): 0.325
relative viability (NCI-H2023; first compound 0.1 µM): 0.361
relative viability (HCC-15; first compound 0.001 µM): 0.436
relative viability (HCC-15; first compound 0.003162 µM): 0.598
relative viability (HCC-15; first compound 0.01 µM): 0.508
relative viability (HCC-15; first compound 0.03162 µM): 0.331
relative viability (HCC-15; first compound 0.1 µM): 0.404
relative viability (NCI-H1793; first compound 0.001 µM): 0.36
relative viability (NCI-H1793; first compound 0.003162 µM): 0.363
relative viability (NCI-H1793; first compound 0.01 µM): 0.357
relative viability (NCI-H1793; first compound 0.03162 µM): 0.196
relative viability (NCI-H1793; first compound 0.1 µM): 0.232
relative viability (NCI-H1944; first compound 0.001 µM): 0.193
relative viability (NCI-H1944; first compound 0.003162 µM): 0.216
relative viability (NCI-H1944; first compound 0.01 µM): 0.222
relative viability (NCI-H1944; first compound 0.03162 µM): 0.181
relative viability (NCI-H647; first compound 0.001 µM): 0.627
relative viability (NCI-H647; first compound 0.003162 µM): 0.628
relative viability (NCI-H647; first compound 0.01 µM): 0.594
relative viability (NCI-H647; first compound 0.03162 µM): 0.449
relative viability (NCI-H647; first compound 0.1 µM): 0.336
relative viability (NCI-H2342; first compound 0.001 µM): 0.534
relative viability (NCI-H2342; first compound 0.003162 µM): 0.614
relative viability (NCI-H2342; first compound 0.01 µM): 0.556
relative viability (NCI-H2342; first compound 0.03162 µM): 0.523
relative viability (NCI-H2342; first compound 0.1 µM): 0.504
relative viability (NCI-H1915; first compound 0.001 µM): 0.372
relative viability (NCI-H1915; first compound 0.003162 µM): 0.394
relative viability (NCI-H1915; first compound 0.01 µM): 0.413
relative viability (NCI-H1915; first compound 0.03162 µM): 0.372
relative viability (NCI-H1915; first compound 0.1 µM): 0.381
relative viability (NCI-H322M; first compound 0.001 µM): 0.781
relative viability (NCI-H322M; first compound 0.003162 µM): 0.702
relative viability (NCI-H322M; first compound 0.01 µM): 0.87
relative viability (NCI-H322M; first compound 0.03162 µM): 0.741
relative viability (NCI-H322M; first compound 0.1 µM): 0.833
relative viability (RERF-LC-KJ; first compound 0.001 µM): 0.406
relative viability (RERF-LC-KJ; first compound 0.003162 µM): 0.449
relative viability (RERF-LC-KJ; first compound 0.01 µM): 0.43
relative viability (RERF-LC-KJ; first compound 0.03162 µM): 0.344
relative viability (RERF-LC-KJ; first compound 0.1 µM): 0.453
relative viability (NCI-H2009; first compound 0.001 µM): 0.417
relative viability (NCI-H2009; first compound 0.003162 µM): 0.464
relative viability (NCI-H2009; first compound 0.01 µM): 0.463
relative viability (NCI-H2009; first compound 0.03162 µM): 0.387
relative viability (NCI-H2009; first compound 0.1 µM): 0.338
relative viability (EPLC-272H; first compound 0.001 µM): 0.305
relative viability (EPLC-272H; first compound 0.003162 µM): 0.283
relative viability (EPLC-272H; first compound 0.01 µM): 0.262
relative viability (EPLC-272H; first compound 0.03162 µM): 0.234
relative viability (EPLC-272H; first compound 0.1 µM): 0.298
relative viability (NCI-H1734; first compound 0.001 µM): 0.359
relative viability (NCI-H1734; first compound 0.003162 µM): 0.396
relative viability (NCI-H1734; first compound 0.01 µM): 0.368
relative viability (NCI-H1734; first compound 0.03162 µM): 0.27
relative viability (NCI-H1734; first compound 0.1 µM): 0.3
relative viability (NCI-H358; first compound 0.001 µM): 0.317
relative viability (NCI-H358; first compound 0.003162 µM): 0.453
relative viability (NCI-H358; first compound 0.01 µM): 0.394
relative viability (NCI-H358; first compound 0.03162 µM): 0.259
relative viability (NCI-H358; first compound 0.1 µM): 0.217
relative viability (NCI-H522; first compound 0.001 µM): 0.591
relative viability (NCI-H522; first compound 0.003162 µM): 0.613
relative viability (NCI-H522; first compound 0.01 µM): 0.719
relative viability (NCI-H522; first compound 0.03162 µM): 0.663
relative viability (NCI-H522; first compound 0.1 µM): 0.56
